Measurements as given in patent US11834469B2, “AMP-activated protein kinase activating compounds and uses thereof” (Skylark Bioscience LLC, priority 2018, dated 2023).

Test system: HEK293 cells
Test: HEK293 Cytotoxicity Assay (CellTiterGlo, CC50)
Type: cell-based, human
Excerpt: Some exemplary assays and examples for assessing therapeutic efficacy, e.g., anticancer effects, of exemplary compounds of the invention are described herein or are well known in the art. HEK293 is a human kidney cell line, and efficacy on HEK293 is considered to be predictive of usefulness for therapeutic treatment.
HEK293 cells were obtained from American Type Culture Collection (ATCC) (Rockville Md.). Cells were maintained in Dulbecco's modified Eagle's medium (DMEM) (Invitrogen, Carlsbad, Calif.) with 10% fetal bovine serum (FBS), 10 mM HEPES and 1 mM sodium pyruvate. Cells were grown at 37° C. in a humidified incubator with a gas phase of 5% CO2. Cells were grown for 24 hours in a Tripleflask (NUNC) to −95% confluence and then resuspended for dispensing at 125,000 cells/mL of DMEM, 10% FBS, 10 mM Hepes and 1 mM sodium pyruvate.
HEK293 cells were seeded in 96 well microtiter plates at 10000 cells/well. After 24 hours of incubation an equal volume of fresh media containing test compounds at given concentrations was added. Plates were then incubated and cells were allowed to proliferate for 48 hours at 37° C., 95% humidity, and 5% CO2. […] A solution of Promega CellTiterGlo (100 microliters) was added by Thermo Combi and the plates were allowed to sit for 10 minutes before reading on a Perkin-Elmer EnVision with US LUM settings for 0.1 sec per well. […]

NC(=O)c1ncn([C@@H]2O[C@H](COP(=O)(O)Oc3ccc([N+](=O)[O-])cc3)[C@@H](O)[C@H]2O)c1N [SB00039]
potency relative to AICAR in HEK293 assay (HEK293 cells, times the potency of AICAR): roughly 100 times

COP(=O)(OC)OC[C@H]1O[C@@H](n2cnc(C(N)=O)c2N)[C@H](O)[C@@H]1O [SB00024]
activity on HEK293 cells (CC50, 50% cytotoxic concentration) (at 500 uM, 48 hours with compound): inactive
